# Test results from US6737383B1, “Herbicidal oxadiazolidines” (priority 1999, dated 2004).
# Key:
# Alexandergrass = experiment: Test D Alexandergrass; assay type: in vivo, Brachiaria plantaginea; conditions: Preemergence, 0 to 100 scale
# Method in brief: (§1)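 Visual injury ratings, 0 = no injury to 100 = complete control, taken 14 to 21 days after treatment. Test chemicals were in a surfactant-containing non-phytotoxic solvent; preemergence treatments went onto the sandy loam surface of seeded greenhouse pots within one day of sowing.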
# common groundsel = experiment: Test D common groundsel; assay type: in vivo, Senecio vulgaris; conditions: Preemergence, 0 to 100 scale
# Method in brief: as §1
# tall mallow = experiment: Test D tall mallow; assay type: in vivo, Malva sylvestris; conditions: Preemergence, 0 to 100 scale
# Method in brief: as §1
# Johnson grass = experiment: Test D Johnson grass; assay type: in vivo, Sorghum halepense; conditions: Preemergence, 0 to 100 scale
# Method in brief: as §1
# surinam grass = experiment: Test D surinam grass; assay type: in vivo, Brachiaria decumbens; conditions: Preemergence, 0 to 100 scale
# Method in brief: as §1
# goosegrass = experiment: Test D goosegrass; assay type: in vivo, Eleusine indica; conditions: Preemergence, 0 to 100 scale
# Method in brief: as §1
# Green foxtail = experiment: Test D green foxtail; assay type: in vivo
# Method in brief: as §1
# common pursiane = experiment: Test D common purslane; assay type: in vivo, Portulaca oleracea
# Method in brief: as §1
# pitted morningglory = experiment: Test D pitted morningglory; assay type: in vivo, Ipomoea lacunosa; conditions: Preemergence, 0 to 100 scale
# Method in brief: as §1
# hairy beggarticks = experiment: Test C postemergence hairy beggarticks; assay type: in vivo, Bidens pilosa; conditions: 0 to 100 scale, 0 no effect, 100 complete control
# Method in brief: (§2)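 Scores (0 = no effect, 100 = complete control) come from visual comparison with untreated controls after about 14–21 days. Spray formulation was a non-phytotoxic solvent mixture including surfactant; plants grew in a 60:40 sandy loam–potting mix blend.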
# velvetleaf = experiment: Test C postemergence velvetleaf; assay type: in vivo, Abutilon theophrasti; conditions: 0 to 100 scale, 0 no effect, 100 complete control
# Method in brief: as §2
# sandbur = experiment: Test D sandbur; assay type: in vivo, Cenchrus echinatus; conditions: Preemergence, 0 to 100 scale
# Method in brief: as §1
# guineagrass = experiment: Test D guineagrass; assay type: in vivo, Panicum maximum; conditions: Preemergence, 0 to 100 scale
# Method in brief: as §1
# common ragweed = experiment: Test D common ragweed; assay type: in vivo, Ambrosia elatior; conditions: Preemergence, 0 to 100 scale
# Method in brief: as §1
# bermuda-grass = experiment: Test D bermudagrass; assay type: in vivo, Cynodon dactylon; conditions: Preemergence, 0 to 100 scale
# Method in brief: as §1
# dallisgrass = experiment: Test D dallisgrass; assay type: in vivo, Paspalum dilatatum; conditions: Preemergence, 0 to 100 scale
# Method in brief: as §1
# cocklebur = experiment: Test C postemergence cocklebur; assay type: in vivo, Xanthium strumarium; conditions: 0 to 100 scale, 0 no effect, 100 complete control
# Method in brief: as §2
# itchgrass = experiment: Test D itchgrass; assay type: in vivo, Rottboellia exaltata; conditions: Preemergence, 0 to 100 scale
# Method in brief: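 Scoring used a 0–100 visual injury scale, with 0 meaning no effect and 100 complete control, assessed 14–21 days after application alongside untreated pots. Preemergence treatments went onto sandy loam surfaces of separately potted seeds within a day of sowing.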
# Spanishneedles = experiment: Test D Spanishneedles; assay type: in vivo, Bidens bipinnata; conditions: Preemergence, 0 to 100 scale
# Method in brief: as §1
# [1] = Rate 16 g/ha, 0 no injury, 100 complete control
# [2] = Rate 32 g/ha, 0 no injury, 100 complete control
# [3] = Rate 64 g/ha, 0 no injury, 100 complete control
# [4] = Rate 125 g/ha, 0 no injury, 100 complete control
# [5] = Rate 16 g/ha; Preemergence; 0 to 100 scale, 0 no injury, 100 complete control
# [6] = Rate 32 g/ha; Preemergence; 0 to 100 scale, 0 no injury, 100 complete control
# [7] = Rate 64 g/ha, Preemergence; 0 to 100 scale, 0 no injury, 100 complete control
# [8] = Rate 125 g/ha, Preemergence; 0 to 100 scale, 0 no injury, 100 complete control
# [9] = Rate 250 g/ha; Preemergence; 0 to 100 scale
# [10] = Rate 500 g/ha, Preemergence; 0 to 100 scale
structure (smiles),measurement,setting,value
CC(C)N(C(=O)n1oc(=O)n(C(C)C)c1=O)c1ccc(F)cc1F [Compound 109],"Plant response rating, Alexandergrass",Alexandergrass; [1],40
same,"Plant response rating, Alexandergrass",Alexandergrass; [2],90
same,"Plant response rating, Alexandergrass",Alexandergrass; [3],98
same,"Plant response rating, Alexandergrass",Alexandergrass; [4],100
same,"Plant response rating, Alexandergrass",Alexandergrass; Rate 250 g/ha,100
same,"Plant response rating, Alexandergrass",Alexandergrass; Rate 500 g/ha,100
same,"Plant response rating, Com. groundsel",common groundsel; [1],0
same,"Plant response rating, Com. groundsel",common groundsel; [2],0
same,"Plant response rating, Com. groundsel",common groundsel; [3],0
same,"Plant response rating, Com. groundsel",common groundsel; [4],0
same,"Plant response rating, Com. groundsel",common groundsel; Rate 250 g/ha,0
same,"Plant response rating, Com. groundsel",common groundsel; Rate 500 g/ha,0
same,"Plant response rating, Tall Mallow",tall mallow; [1],0
same,"Plant response rating, Tall Mallow",tall mallow; [2],20
same,Tall Mallow plant response rating,tall mallow; [3],60
same,Tall Mallow plant response rating,tall mallow; [4],85
same,"Plant response rating, Tall Mallow",tall mallow; Rate 250 g/ha,98
same,"Plant response rating, Tall Mallow",tall mallow; Rate 500 g/ha,100
same,Plant response rating Johnsongrass,Johnson grass; [1],0
same,Plant response rating Johnsongrass,Johnson grass; [2],0
same,Plant response rating Johnsongrass,Johnson grass; [3],75
same,Plant response rating Johnsongrass,Johnson grass; [4],98
same,Plant response rating Johnsongrass,Johnson grass; Rate 250 g/ha,100
same,Plant response rating Johnsongrass,Johnson grass; Rate 500 g/ha,100
same,Plant response rating Surinam grass,surinam grass; [1],0
same,Plant response rating Surinam grass,surinam grass; [2],30
same,Surinam grass plant response rating,surinam grass; [3],85
same,Surinam grass plant response rating,surinam grass; [4],98
same,Plant response rating Surinam grass,surinam grass; Rate 250 g/ha,100
same,Plant response rating Surinam grass,surinam grass; Rate 500 g/ha,100
same,"Plant response rating, Goosegrass",goosegrass; [1],85
same,"Plant response rating, Goosegrass",goosegrass; [2],98
same,"Plant response rating, Goosegrass",goosegrass; [3],100
same,"Plant response rating, Goosegrass",goosegrass; [4],100
same,"Plant response rating, Goosegrass",goosegrass; Rate 250 g/ha,100
same,"Plant response rating, Goosegrass",goosegrass; Rate 500 g/ha,100
same,"Plant response rating, Green foxtail","Green foxtail; Preemergence; Rate 16 g/ha; 0 to 100 scale, 0 no injury, 100 complete control",98
same,"Plant response rating, Green foxtail","Green foxtail; Preemergence; Rate 32 g/ha; 0 to 100 scale, 0 no injury, 100 complete control",100
same,"Plant response rating, Green foxtail",Green foxtail; [5],98
same,"Plant response rating, Green foxtail",Green foxtail; [6],0
same,Green foxtail plant response rating,Green foxtail; [7],100
same,"Plant response rating, Green foxtail",Green foxtail; [7],100
same,Green foxtail plant response rating,Green foxtail; [8],100
same,"Plant response rating, Green foxtail",Green foxtail; [8],100
same,"Plant response rating, Green foxtail",Green foxtail; [9],100
same,"Plant response rating, Green foxtail",Green foxtail; [10],100
same,"Plant response rating, C. purslane",common pursiane; [5],0
same,"Plant response rating, C. purslane",common pursiane; [6],0
same,"Plant response rating, C. purslane",common pursiane; [7],0
same,"Plant response rating, C. purslane",common pursiane; [8],0
same,"Plant response rating, C. purslane",common pursiane; [9],0
same,"Plant response rating, C. purslane",common pursiane; [10],55
same,"Plant response rating, C. purslane",common pursiane; Rate 500 g/ha; Preemergence; 0 to 100 scale,0
same,"Plant response rating, P. morninglory",pitted morningglory; [1],0
same,"Plant response rating, P. morninglory",pitted morningglory; [2],0
same,"Plant response rating, P. morninglory",pitted morningglory; [3],0
same,"Plant response rating, P. morninglory",pitted morningglory; [4],65
same,"Plant response rating, P. morninglory",pitted morningglory; Rate 250 g/ha,85
same,"Plant response rating, P. morninglory",pitted morningglory; Rate 500 g/ha,100
same,Plant response rating H. beggarticks,hairy beggarticks; Rate 280 g/ha,5
same,Plant response rating H. beggarticks,hairy beggarticks; Rate 560 g/ha,70
same,Plant response rating H. beggarticks,hairy beggarticks; Rate 1120 g/ha,85
same,"Plant response rating, Velvetleaf",velvetleaf; Rate 140 g/ha,10
same,"Plant response rating, Velvetleaf",velvetleaf; Rate 280 g/ha,20
same,"Plant response rating, Velvetleaf",velvetleaf; Rate 560 g/ha,50
same,"Plant response rating, Velvetleaf",velvetleaf; Rate 1120 g/ha,75
same,"Plant response rating, Sandbur",sandbur; [1],0
same,"Plant response rating, Sandbur",sandbur; [2],0
same,Sandbur plant response rating,sandbur; [3],98
same,Sandbur plant response rating,sandbur; [4],100
same,"Plant response rating, Sandbur",sandbur; Rate 250 g/ha,100
same,"Plant response rating, Sandbur",sandbur; Rate 500 g/ha,100
same,"Plant response rating, Guineagrass",guineagrass; [1],90
same,"Plant response rating, Guineagrass",guineagrass; [2],100
same,"Plant response rating, Guineagrass",guineagrass; [3],100
same,"Plant response rating, Guineagrass",guineagrass; [4],100
same,"Plant response rating, Guineagrass",guineagrass; Rate 250 g/ha,100
same,"Plant response rating, Guineagrass",guineagrass; Rate 500 g/ha,100
same,"Plant response rating, C. ragweed",common ragweed; [1],0
same,"Plant response rating, C. ragweed",common ragweed; [2],0
same,"Plant response rating, C. ragweed",common ragweed; [3],10
same,"Plant response rating, C. ragweed",common ragweed; [4],10
same,"Plant response rating, C. ragweed",common ragweed; Rate 250 g/ha,10
same,"Plant response rating, C. ragweed",common ragweed; Rate 500 g/ha,55
same,"Plant response rating, Bermudagrass",bermuda-grass; [1],98
same,"Plant response rating, Bermudagrass",bermuda-grass; [2],100
same,"Plant response rating, Bermudagrass",bermuda-grass; [3],100
same,"Plant response rating, Bermudagrass",bermuda-grass; [4],100
same,"Plant response rating, Bermudagrass",bermuda-grass; Rate 250 g/ha,100
same,"Plant response rating, Bermudagrass",bermuda-grass; Rate 500 g/ha,100
same,"Plant response rating, Dallisgrass",dallisgrass; [1],40
same,"Plant response rating, Dallisgrass",dallisgrass; [2],98
same,"Plant response rating, Dallisgrass",dallisgrass; [3],100
same,"Plant response rating, Dallisgrass",dallisgrass; [4],100
same,"Plant response rating, Dallisgrass",dallisgrass; Rate 250 g/ha,100
same,"Plant response rating, Dallisgrass",dallisgrass; Rate 500 g/ha,100
same,"Plant response rating, Cocklebur",cocklebur; Rate 140 g/ha,30
same,"Plant response rating, Cocklebur",cocklebur; Rate 280 g/ha,30
same,"Plant response rating, Cocklebur",cocklebur; Rate 560 g/ha,60
same,"Plant response rating, Itchgrass",itchgrass; [1],0
same,"Plant response rating, Itchgrass",itchgrass; [2],65
same,"Plant response rating, Itchgrass",itchgrass; [3],75
same,"Plant response rating, Itchgrass",itchgrass; [4],75
same,"Plant response rating, Itchgrass",itchgrass; Rate 250 g/ha,100
same,"Plant response rating, Itchgrass",itchgrass; Rate 500 g/ha,100
same,"Plant response rating, Spanishneedles",Spanishneedles; [1],0
same,"Plant response rating, Spanishneedles",Spanishneedles; [2],10
same,Spanishneedles plant response rating,Spanishneedles; [3],10
same,Spanishneedles plant response rating,Spanishneedles; [4],10
same,"Plant response rating, Spanishneedles",Spanishneedles; Rate 500 g/ha,30
Cc1ccc(N(C(=O)n2oc(=O)n(C(C)C)c2=O)C(C)C)cc1 [Compound 132],"Plant response rating, Alexandergrass",Alexandergrass; [3],98
same,"Plant response rating, Com. groundsel",common groundsel; [3],0
same,Tall Mallow plant response rating,tall mallow; [3],40
same,Plant response rating Johnsongrass,Johnson grass; [3],35
same,Surinam grass plant response rating,surinam grass; [3],30
same,"Plant response rating, Goosegrass",goosegrass; [3],98
same,Green foxtail plant response rating,Green foxtail; [7],100
same,"Plant response rating, Green foxtail",Green foxtail; [7],100
same,"Plant response rating, C. purslane",common pursiane; [7],10
same,"Plant response rating, P. morninglory",pitted morningglory; [3],0
same,Plant response rating H. beggarticks,hairy beggarticks; Rate 140 g/ha,0
same,Plant response rating H. beggarticks,hairy beggarticks; Rate 280 g/ha,0
same,"Plant response rating, Velvetleaf",velvetleaf; Rate 140 g/ha,0
same,"Plant response rating, Velvetleaf",velvetleaf; Rate 280 g/ha,0
same,"Plant response rating, Velvetleaf",velvetleaf; Rate 560 g/ha,0
same,"Plant response rating, Velvetleaf",velvetleaf; Rate 1120 g/ha,0
same,Sandbur plant response rating,sandbur; [3],0
same,"Plant response rating, Guineagrass",guineagrass; [3],85
same,"Plant response rating, C. ragweed",common ragweed; [3],0
same,"Plant response rating, Bermudagrass",bermuda-grass; [3],100
same,"Plant response rating, Dallisgrass",dallisgrass; [3],98
same,"Plant response rating, Cocklebur",cocklebur; Rate 140 g/ha,0
same,"Plant response rating, Cocklebur",cocklebur; Rate 280 g/ha,0
same,"Plant response rating, Cocklebur",cocklebur; Rate 560 g/ha,0
same,"Plant response rating, Cocklebur",cocklebur; Rate 1120 g/ha,0
same,"Plant response rating, Itchgrass",itchgrass; [3],10
same,Spanishneedles plant response rating,Spanishneedles; [3],0
